# From a melting point compilation (Tetko et al.; mined from patent text by program, amines drawn as free bases though some values may be those of a salt)
row,Structure (SMILES),melting point [°C]
1,O=C(NCc1ccc2cc(O)ccc2c1)c1cc(-c2ccc(Cl)cc2)oc1C(F)(F)F,189 to 191
2,CCn1c(=O)c2c(nc(/C=C/c3ccc(O)c(O)c3)n2C)n(CC)c1=O,248
3,O=C1c2ccccc2C(O)N1CCCO[N+](=O)[O-] (stereo not drawn),72 to 74
4,CCNC(=O)c1ccccc1C(F)(F)F,73 to 76
5,Cc1nn(CC(F)(F)F)c(C(N)=O)c1[N+](=O)[O-],205 to 207
6,OC1(c2nccnc2Cl)CN2CCC1CC2 (stereo not drawn),215 to 216
7,CNCC1(O)c2ccccc2C=Cc2ccccc21,112 to 114
8,CCOC(=O)CCN1CCN(C2=Nc3ccccc3Cc3ccccc32)CC1,133 to 134
9,CNCC1Cc2cc(-c3ccccc3)cc(-c3cccc(F)c3)c2O1 (stereo not drawn),> 250
10,CC(C)Cc1nc(-c2ccccc2)cnc1NN,109 to 110
11,CC(C)n1c(=O)n(CC2CO2)c2cc(-c3ncc(C(F)(F)F)cc3Cl)ccc21 (stereo not drawn),110 to 111
12,CC(C)n1nc(-c2nc(-c3ccccc3)c(N)nc2-c2ccccc2)ccc1=O,225 to 226
13,CC1(C(=O)Nc2ccc(-n3nc(C(F)(F)F)cc3C(F)(F)F)cc2)CC1(Cl)Cl (stereo not drawn),143 to 145
14,C[Si](C)(C)c1ccc2cc(C(=O)Nc3ccc(N4CC(O)C4)nc3)n(Cc3cccc(F)c3)c2c1,188 to 189
15,CCC(CC(=O)NC(=O)OC(C)(C)C)Nc1ccc(Cl)cc1 (stereo not drawn),93 to 94
16,CC(=O)NC[C@H]1CN(c2ccc(C(=O)c3cnc4c(OCc5ccccc5)cccn34)cc2)C(=O)O1,193 to 195
17,ClC(Cl)=CCOc1cc(Cl)c(OCc2ccncc2)c(Cl)c1,74
18,CN1c2ccc(Cl)cc2C(c2ccccc2F)=Nc2cccnc21,136 to 138
19,COc1ccc2c(N(C)CCN3CCOCC3)noc2c1,43 to 44
20,O=C(N[C@H]1CCCNC1=O)c1ccc(C(F)(F)F)cc1,212 to 214
21,N#Cc1c(N)cccc1Oc1ccccc1,66 to 67
22,CC(=O)N[C@@H](CS)C(=O)NCCSC(=O)c1ccccc1,128 to 130
23,COc1cc(-c2nc3ccc(OCCCN(C)C)cc3n2Cc2ccccc2Br)cc(OC)c1OC,141
24,COc1cc2c(cc1OC)C(C=O)c1ccccc1CC2 (stereo not drawn),130 to 132
25,CC(C)(CO)COc1ccc(NC(=O)c2cc3ccccc3s2)cc1C#N,188 to 189

row,Structure (SMILES),melting point [°C]
1,Cc1ccc(O)cc1NC(=O)CC12CC3CC(CC(C3)C1)C2,255 to 256
2,CC1CC(=O)NN=C1c1ccc2c(c1)NCCO2 (stereo not drawn),166 to 168
3,CCCCNC(=O)COC1c2ccccc2C(=O)N1c1ccc2ccc(OC)nc2n1 (stereo not drawn),170
4,COC(=O)Cc1noc2cc(F)ccc12,60 to 61
5,CCCCCS(=O)(=O)NC(=O)/C=C/c1ccc(OCCOC)cc1Oc1ncc(NC(C)=O)cc1C,188
6,COC(=O)CN(C)S(=O)(=O)c1ccc(Cl)cc1,80 to 80.5
7,CC(=O)NC[C@H]1CN(c2ccc(N3CCC(=C(C#N)n4ccnc4)CC3)c(F)c2)C(=O)O1,196 to 198
8,OC1CCN(Cc2ccc(Br)cn2)CC1,52 to 54
9,NC(=O)C(F)(I)C(F)(F)F (stereo not drawn),75 to 77
10,CN(C)c1nc(N(C)C)nc(N(C)Cc2ccc(O)cc2)n1,163 to 164
11,C=CCN(CC=C)Cc1csc(-c2ncn3c2[C@@H]2CCCN2C(=O)c2c(Cl)cccc2-3)n1,186 to 187
12,O=C1c2c(n3c4c(cccc24)OCC3c2ccccc2)CCC1(Cl)Cl (stereo not drawn),104
13,CNC(=O)c1ccccc1Nc1nc(Nc2ccc3c(c2)COCCN3C)ncc1Cl,216 to 217
14,CC(C)Oc1cc([N+](=O)[O-])c(F)cc1C#N,116 to 118
15,CCOc1nc2cccc(C(=O)OC)c2n1Cc1ccc(-c2ccccc2-c2nc(=O)s[nH]2)cc1,211 to 212
16,Cn1cccc(N)c1=S,98 to 100
17,CC(C)(C)OC(=O)NCC(Cl)c1ccco1 (stereo not drawn),75 to 77
18,CCOC(=O)Cc1c(C(=O)OCC)c(C)cn1CCOS(C)(=O)=O,66 to 68
19,CC(C)c1nn(-c2ccc(Cl)cn2)cc1CCCO,93 to 95
20,COc1ccc(C(Cl)=C(C=O)c2ccc(OC)c(OC)c2)cc1OC,183 to 184
21,OCCSc1nc(-c2ccccc2)c(-c2ccccc2)s1,77 to 79
22,COC(=O)c1cnc2c3cc(NS(C)(=O)=O)ccc3ncn2c1=O,293 to 296
23,O=S(=O)(c1ccc(O)cc1)N1CCCC1,122 to 125
24,COc1ccc(C(=O)CN2CCN(C(c3ccccc3)c3ccccc3)CC2)c(OC)c1OC,119
25,COc1cc(I)c(C(=O)Oc2ccccc2COC(=O)c2ccc3c(c2I)OCO3)cc1OC,128 to 130

row,Structure (SMILES),melting point [°C]
1,CN(CCCC(C(N)=O)(c1ccccc1)c1ccccc1)CCc1ccccn1,134 to 136
2,C=C(Cl)Cn1c(C)c(C)c2cnnc(OCc3ccccc3)c21,88 to 90
3,CCc1cc2c(cc1Oc1ccc(C(=O)O)cc1C)C(C)(C)CCC2(C)C,210 to 211
4,c1ccc(CNc2nc(-c3ccco3)nc3ccccc23)cc1,152 to 154
5,CCCCCCS(=O)(=O)Cc1ccc(C(C)(C)NC(=O)OC)cc1,104 to 105
6,NC1=NC(c2ccc(OC(F)(F)F)cc2)(c2ccc(F)c(-c3cncnc3)c2)C(=O)N1C(F)F (stereo not drawn),82 to 94
7,CCCCC(=O)OCCOCn1cnc2c(=O)[nH]c(N)nc21,215 to 217
8,O=[N+]([O-])c1ccc(Br)cc1-c1cc(-c2ccc(Br)cc2)on1,184 to 185
9,CN(C)CCOCC(O)c1ccc2cc(OCc3ccccc3)ccc2c1 (stereo not drawn),100
10,O=C(O)c1cc(Br)c(Cl)cc1O,208 to 213
11,CC(C)(C)c1cc(-c2nc3n(c2C#N)CCS3)cc(C(C)(C)C)c1O,207 to 208
12,CCCCc1oc2ccccc2c1C(=O)NCc1ccc2c(-c3ccc(Cl)cc3)c(OCC#N)ccc2c1,154 to 158
13,O=CC(CC(=O)O)NC(=O)C1CCCN2C(=O)CCC(NC(=O)c3ccccc3)C(=O)N12 (stereo not drawn),143 to 147
14,Cn1c(SCCCN2CCc3ccc(C(=O)c4ccccc4)cc3C2)nnc1-c1ccccc1,146 to 152
15,COc1ccc(CC2CCC3=C(C2)CC(CO)C(=O)N3)cc1 (stereo not drawn),165 to 168
16,COc1cc(CO)ccc1C12CC3CC(CC(C3)C1)C2,120 to 121
17,COc1ccc(C(=O)N[C@H]2CCN(C)C[C@H]2c2ccccc2)cc1 (relative stereo),165 to 166
18,CC(=O)/C=C(\C)c1ccc(C2CCCCC2)c(Cl)c1,56.5 to 57.5
19,O=C(NC(Cc1cccc(C(F)(F)F)c1)C(=O)N1CCSC1)c1cc2cc(Cl)ccc2[nH]1 (stereo not drawn),205 to 207
20,Cc1cccc(-c2cc3cnc(N)nc3nc2N)c1C,330 to 333
21,CC(C)(C)OC(=O)N1CCN(CC(=O)Nc2ccc(CC#N)cc2)CC1,137 to 138
22,O=c1[nH]c(=O)n2c3c(cccc13)S(=O)c1ccc(C(F)(F)F)cc1-2 (stereo not drawn),302 to 304
23,CNS(=O)(=O)N1CC2(CCN(C(=O)Nc3nnc(-c4ccccc4)s3)CC2)c2ccccc21,230 to 231
